Key:
[1] = tested on: rats with scopolamine-induced deficits; experiment: Passive avoidance in rats, scopolamine-induced amnesia; format: in vivo, rat
Method: The protocol summarized below is one of many variants of the passive avoidance procedure using scopolamine-induced amnesia (for review see Rush, Behav Neural Biol 50:255-274, 1988). This procedure is commonly used to identify drugs that may be useful in treating cognitive deficits, particularly those observed in AD. The effects of the D
Testing was conducted in standard 2-compartment rectangular passive avoidance chambers (San Diego Instruments, San Diego, Calif.) with black plexiglas sides and grid floors. The light compartment of the chambers were illuminated by a 20 W lamp located in this compartment; the dark side of the chambers will be shielded from light, except for light penetrating the opening connecting the two compartments of each chamber.
On training day, groups of 8 rats were injected with scopolamine (3.0 mg/kg, ip) or vehicle (1.0 ml/kg) 30 min prior to training. Scopolamine served as the dementing agent in this experiment. Ten min prior to training, each group of rats received a second injection of vehicle or a dose of DHX. At the end of the pretreatment interval, each rat was placed individually in the light compartment facing away from the opening between compartments. The latency for each rat to travel from the light to the dark compartment was measured up to a maximum of 300 sec; any animal not entering the dark compartment within 300 sec was discarded from the test group. Once the animal entered the dark compartment completely, a 1.0 milliampere, 3.0 sec scrambled shock was delivered to the entire grid floor. The animal was allowed to remain in the dark compartment during this 3.0 sec period or to escape to the light compartment. Each rat was then returned immediately to its home cage.
Twenty-four hr after training, each rat was tested in the same apparatus for retention of the task (to remain passively in the light compartment). […] The latency for animals to enter the dark compartment on test day (step-through latency) was recorded up to a maximum of 600 sec. Each animal was used only once in a single experiment.
A one-way analysis of variance (ANOVA) and Newman-Keuls post-hoc comparisons were used to identify significant deficits in passive avoidance responding produced by scopolamine and their reversal by DHX; a p value of less than 0.05 was used as the level of significance.

D1A receptor (C-6-mD1A) = target: T1, D1A receptor (C-6-mD1A) (Macaca mulatta, UniProt O77680); experiment: Binding, cloned D1A receptor in C-6 cells; parameters: species or system monkey (rhesus macaque); details: monkey receptor, read-out: Cloned Receptors D1A C-6 (monkey)
T1 construct: expressed in transfected cells; host or cells: C-6 glioma cells
Method: Cells were grown in DMEM-H medium containing 4,500 mg/l glucose, L-glutamine, 5% fetal bovine serum and 600 ng/ml G418. […] Cells were plated into 24-well plates and allowed to grow to confluence (usually 2-4 days), after which they were used for either dose-response or desensitization studies. For the binding studies, 75-cm^2 flasks of confluent cells were treated as described below. All studies (functional and receptor binding) used cells from passages 2 to 20.
Flasks of cells in the same passage were rinsed with 5 ml hypoosmotic buffer (1 mM HEPES, 2 mM EGTA, pH 7.4), and then incubated with 7 ml hypoosmotic buffer for 5 to 10 min at 4° C. Cells were then scraped off the bottom of the flask with a rubber policeman, collected into 50-ml tubes and centrifuged at 28,000×g at 4° C. for 20 min. […] Aliquots contained approximately 1 mg/ml of protein, as measured with the BCA protein assay reagent (Pierce, Rockford, Ill.). […]
For dose-response studies, data were calculated for each sample and expressed initially as pmol cAMP per mg protein per min. […] Normalized dose-response curves were analyzed by nonlinear regression with an algorithm for sigmoid curves in the curve-fitting program Prism (Graphpad Inc., San Diego, Calif.). […] For competition binding studies, the raw data (expressed in dpm) were analyzed by nonlinear regression with a sigmoid dose-response model in Prism. […]

[2] = target: 40 binding sites (other than the D1 site); experiment: Screen for activity at 40 binding sites; details: 40 binding sites other than D1, all except D2 and alpha2 adrenergic; read-out: IC50 at binding sites found inactive
Excerpt: (§1) […]. […] […].

[3] = target: alpha2 adrenergic receptors; experiment: Binding site screen, alpha2 adrenergic receptors
Excerpt: as §1

adenylate cyclase = experiment: Stimulation of adenylate cyclase in brain tissue; format: biochemical; details: rat, monkey, and human brain tissue
Excerpt: as §1

[4] = tested on: dopamine release or reuptake; experiment: Dopamine release and reuptake
Excerpt: as §1

[5] = Half-life and duration of functional activity; format: in vivo
[6] = tested on: acetylcholine release in striatum and frontal cortex; experiment: Acetylcholine release by in vivo microdialysis in conscious, freely-moving rats; parameters: species or system rat
MPTP-treated monkeys = experiment: Cognitive deficits in chronic low dose MPTP-treated monkeys, delayed response task; format: in vivo, monkey
Excerpt: Two adult male Macaca fascicularis monkeys (4.7 and 5.7 kg initial body weight) and 1 female Macaca nemistrina monkey (5.0 kg initial body weight) were trained to perform a delayed response task. Briefly, animals were trained and tested on delayed response while seated in a restraining chair placed inside a sound attenuating modified Wisconsin General Test Apparatus. The monkey sat behind an opaque screen that when raised, allowed access to a sliding tray that contained recessed food wells with identical sliding white Plexiglas covers that served as stimulus plaques that could be displaced by the animal to obtain rewards (e.g. raisins). Monkeys were trained to retrieve a raisin from one of the food wells after observing the experimenter bait the well. […]
Training was accomplished with a non-correction procedure, beginning with a 0 s delay and progressing to a 5 s delay. […] A response was scored a “mistake” if the monkey made its response choice to a well that was not baited with reward. […]
Compounds and/or compositions described herein are tested by dissolving in physiological saline containing 0.2% ascorbate and administering subcutaneously. Ilustratively, compounds and/or compositions described herein are used at 0.3, 0.6, and 0.9 mg/kg doses, calculated as the free base where appropriate. The order of dose administration is determined randomly. […]

[7] = Pharmacokinetic studies in rodents and non-human primates; format: in vivo
Excerpt: […]. […] […]

monkeys = details: young, intact monkeys; cited from earlier work
D3 receptor = D3 receptor (Rattus norvegicus, UniProt P19020); experiment: biochemical
D4 receptor = target: T2, D4 receptor (Rattus norvegicus, UniProt P30729); experiment: Binding, cloned D4 receptor in CHO cells; parameters: expressed in transfected cells; host or cells: CHO cells; details: read-out: Cloned Receptors D4 CHO (rat)
T2 sequence (P30729 1-387): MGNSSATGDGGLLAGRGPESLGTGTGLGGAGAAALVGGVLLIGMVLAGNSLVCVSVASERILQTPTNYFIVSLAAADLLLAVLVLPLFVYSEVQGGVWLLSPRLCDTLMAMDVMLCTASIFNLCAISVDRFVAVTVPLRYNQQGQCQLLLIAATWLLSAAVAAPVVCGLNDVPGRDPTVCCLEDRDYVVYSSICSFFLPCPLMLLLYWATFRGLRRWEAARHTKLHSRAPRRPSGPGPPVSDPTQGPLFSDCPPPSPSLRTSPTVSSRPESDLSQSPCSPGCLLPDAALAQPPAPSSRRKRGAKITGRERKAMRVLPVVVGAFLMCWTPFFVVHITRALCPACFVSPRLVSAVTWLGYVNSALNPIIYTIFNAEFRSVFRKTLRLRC

Sequence of D3 receptor (P19020 whole entry): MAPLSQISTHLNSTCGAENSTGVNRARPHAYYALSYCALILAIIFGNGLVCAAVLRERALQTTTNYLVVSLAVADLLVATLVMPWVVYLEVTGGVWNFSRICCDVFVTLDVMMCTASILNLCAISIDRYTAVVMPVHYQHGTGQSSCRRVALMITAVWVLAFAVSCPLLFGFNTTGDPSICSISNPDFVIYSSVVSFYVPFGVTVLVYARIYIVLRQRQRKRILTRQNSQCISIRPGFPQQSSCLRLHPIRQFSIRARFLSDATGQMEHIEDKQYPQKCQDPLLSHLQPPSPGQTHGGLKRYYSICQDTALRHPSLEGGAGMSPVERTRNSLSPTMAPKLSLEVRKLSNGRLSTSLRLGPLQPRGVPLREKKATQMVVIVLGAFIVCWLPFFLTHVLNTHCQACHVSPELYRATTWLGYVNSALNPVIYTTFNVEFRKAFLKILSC
T1 sequence (O77680 whole entry): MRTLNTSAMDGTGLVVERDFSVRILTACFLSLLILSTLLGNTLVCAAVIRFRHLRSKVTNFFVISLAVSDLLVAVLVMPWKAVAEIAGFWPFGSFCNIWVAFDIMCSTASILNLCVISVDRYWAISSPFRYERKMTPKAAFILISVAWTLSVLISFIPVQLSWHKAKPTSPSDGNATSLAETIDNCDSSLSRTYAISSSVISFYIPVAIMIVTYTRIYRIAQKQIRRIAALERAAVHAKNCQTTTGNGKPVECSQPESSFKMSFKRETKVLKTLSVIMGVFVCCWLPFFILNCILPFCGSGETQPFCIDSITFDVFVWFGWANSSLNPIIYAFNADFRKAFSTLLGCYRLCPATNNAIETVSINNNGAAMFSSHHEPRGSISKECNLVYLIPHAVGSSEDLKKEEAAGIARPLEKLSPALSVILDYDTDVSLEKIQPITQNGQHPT

In the case of `Cl.Oc1cc2c(cc1O)[C@@H]1c3ccccc3CN[C@H]1CC2` (relative stereo) [Compound 6a, Trans-10,11-dihydroxy-5,6,6a,7,8,12b-hexahydrobenzo[a]phenanthridine hydrochloride], the “Shape of dose-response curve in passive avoidance” value [1] is reported as “inverted U-shaped dose-response curve”, the “Scopolamine-induced deficits in step-through latency” value ([1]; dose of 0.3 mg/kg, scopolamine 3.0 mg/kg ip) is reported as “significantly improved” and the “Increase in step-through latency” value ([1]; doses of 0.1 and 1.0 mg/kg, scopolamine 3.0 mg/kg ip) is reported as “not statistically-significant”. The “Deficits induced by scopolamine” value ([1]; narrow range of doses (0.1, 0.3, and 1.0 mg/kg ip)) was “significantly improved”, the Ki (D1A receptor (C-6-mD1A)) was 2.2 nM and the IC50 [2] was over 10000 nM. For the same molecule, the IC50 [3] was about 230 nM, the “Efficacy in stimulating adenylate cyclase in brain tissue” value (adenylate cyclase) was “full efficacy” and the “Releasing dopamine or blocking its reuptake” value [4] was “inactive”. The Functional half-life ([5]; given subcutaneously) was “about 3 hr”, the half-life ([5]; in vivo, iv, given intravenously, read-out: Half-life) was about 30 min and the Acetylcholine release [6] was “dose-related increases”. For the same molecule, the “Cognitive deficits produced by chronic low dose MPTP treatment” value (MPTP-treated monkeys) was “improve cognitive deficits”, the Clearance from plasma ([7]; in vivo) was “cleared rapidly” and the Blood levels ([7]; rodents and non-human primates, following iv, sc and po administration) was “significant blood levels”. For the same molecule, the Spatial working memory (monkeys) was “produced improvements”, the Ki (D3 receptor) was 18 nM and the Ki (D4 receptor) was 13 nM.
